How the values were obtained:
[1] = tested on: patients with mild cognitive impairment (MCI) due to Alzheimer's disease (AD) or with mild AD; assay: Hopkins Verbal Learning Test-Revised (HVLT-R), 6-week study (Example 2); type: in vivo, human; settings: for HVLT-R Delayed Recall change from averaged baseline, Maximum / HVLT-R Delayed Recall change from averaged baseline, Median / HVLT-R Delayed Recall change from averaged baseline, Minimum / HVLT-R RDI change from averaged baseline, Maximum / HVLT-R RDI change from averaged baseline, Median / HVLT-R RDI change from averaged baseline, Minimum / HVLT-R Retention change from averaged baseline, Maximum / HVLT-R Retention change from averaged baseline, Median / HVLT-R Retention change from averaged baseline, Minimum / HVLT-R Total Recall change from averaged baseline, Maximum / HVLT-R Total Recall change from averaged baseline, Median / HVLT-R Total Recall change from averaged baseline, Minimum: n=8; for HVLT-R Delayed Recall change from averaged baseline, Arithmetic Mean / HVLT-R Retention change from averaged baseline, Arithmetic Mean / HVLT-R Total Recall change from averaged baseline, Arithmetic Mean: overall pharmacodynamic population n=8
Experimental: The Hopkins Verbal Learning Test-Revised (HVLT-R) was utilized to assess episodic memory. In this test, 12 specific words from a list were provided verbally, and the subject was asked to recall as many words as possible. Two scores are calculated: (i) Total (Immediate) Recall Score (range: 0-36): combined score of three consecutive trials immediately following provision of words and (ii) Delayed Recall Score (range: 0-12): Number of words recalled when subject was asked 20 to 25 minutes after initial trials to recall as many of the words originally provided. A strength of the HVLT-R is that six different validated version exist that each incorporate a different set of words. Due to the use of these different versions during the course of a clinical study, there is essentially no practice effect with repeated administration (Benedict, R. H. B. et al, “Hopkins Verbal Learning Test-Revised: Normative Data and Analysis of Inter-Form and Test-Retest Reliability” The Clinical Neuropsychologist, 12(1): 43-55 (1998)).

[2] = tested on: DS (Down's Syndrome) human fibroblasts; assay: EEA1-labeled early endosomes in Down's Syndrome human fibroblasts (Example 4); type: cell-based; settings: 0, 1, 10, or 50 nM VX-745 for 24 hours
From the text: Down's Syndrome (DS, Trisomy 21) derived human fibroblasts provide a robust system for studying Alzheimer's related endosomal dysfunction as one of the Familial Alzheimer's disease (FAD) genes, Amyloid Precursor Protein (APP), is expressed on chromosome 21 and as a result inherently DS individuals overexpress APP and develop an Alzheimer's type dementia as they grow older beyond age 40 (Jiang, Y, et. al., “Alzheimer's-related endosome dysfunction in Down syndrome is Aβ-independent but requires APP and is reversed by BACE-1 inhibition,” PNAS 107:1630-1635 (2010)).
In vitro, DS human fibroblasts show increased numbers and enlarged early endosomes by electron microscopy or by fluorescence staining with antibodies to EEA1 (Early Endosome Antigen 1). […] After incubation, the cells were fixed and incubated with anti-EEA1 antibody to label early endosomes.

[3] = tested on: patients with mild cognitive impairment (MCI) due to Alzheimer's disease (AD) or with mild AD; assay: Wechsler Memory Scale (WMS) immediate and delayed recall, 12-week study (Example 1); type: in vivo, human; settings: for patients with improvement from baseline, WMS delayed recall composite score / patients with improvement from baseline, WMS immediate recall composite score: day 84
Experimental: In this study, episodic memory was evaluated using the Dutch version of the WMS scale utilizing both verbal and visual information: Logical Memory (LM I & II) test, in which subject is read a story; Verbal-Paired Associates (VPA I & II), in which subject is given pairs of words and asked remember which words go together; and Visual Reproduction (VR I & II)), in which subject is given drawings of specific shapes. Subjects were then asked to recall the information within each test both in an immediate (WMS-Immediate Recall composite) and delayed (WMS-Delayed Recall composite) basis. The total score of the WMS-Immediate Recall component could range from 0 to 136 (0-53 for LMI; 0-40 for VPA I, and 0-43 VR I) and for the WMS-Delayed Recall from 0 to 92 (0-39 for LM II; 0-10 for VPA II, and 0-43 VR II).
Further analysis included Wechsler Memory Scale (WMS) Analyses. The WMS includes three subcategories: immediate recall, delayed recall, and symbol span, each with distinct assessments. Results can be analyzed as two distinct composites scores or as an overall composite score. This evaluation included the overall (score range: 0 to 401), immediate recall (score range: 0 to 136), and delayed recall (score range: 0 to 92) composite scores; the latter two are considered measures of episodic memory. In addition, the Symbol Span sub-component of WMS was analyzed separately (score range: 0 to 50). In all cases, higher scores reflect better cognitive performance.

[4] = tested on: amyloid-beta peptides (Aβ 38/40/42); assay: CSF amyloid-beta peptides, 6-week study; type: in vivo, human; settings: baseline to Day 41; p=0.01 to p=0.047
Experimental: Effects on CSF levels of Aβ peptides were evaluated as measures of the amyloidenic process, which is activated with aging and more so in patients with Alzheimer's disease.
Target engagement was assessed through the evaluation of the effect of drug treatment on CSF biomarkers. CSF was collected at 6 time-points over 24 hours at baseline (the 24 hours prior to first dose) and again at 6 time-points over 24 hours near the end of treatment on Day 40. The samples were evaluated by the Mesoscale Discovery ELISA platform for multiple cytokines ((IFN-γ, IL-1β, IL-2, IL-4, IL-5, IL-8, IL-12 protein 70, IL-13, TNFα, and CSF) and for amyloid-beta peptides (Aβ 38/40/42).

[5] = tested on: patients with mild cognitive impairment (MCI) due to Alzheimer's disease (AD) or with mild AD; assay: Mini-Mental State Examination (MMSE), 12-week study (Example 1); type: in vivo, human; settings: for subjects with an increase from screening of at least 1 in MMSE score: Day 84 (Visit 7)
From the text: The MMSE is a questionnaire used extensively in clinical and research settings to measure mental function. It is commonly used to screen for dementia, and to assess the severity and progression of dementia. The MMSE is an effective way to document a human subject's response to treatment. The test examines functions including registration, attention and calculation, recall, language, ability to follow simple commands and orientation.
Investigators and patients were blind to the dosage strength. […] Patients were instructed to take doses within 30 minutes following a meal or snack, with each dose taken approximately 12 hours apart at the same times each day throughout the study.

[6] = Example 2 study (N = 8), HLVT-R
[7] = Example 1 study (N = 15), Wechsler Memory Scale

## O=c1ncn2nc(Sc3ccc(F)cc3F)ccc2c1-c1c(Cl)cccc1Cl [VX-745]
[1]; Day 14
  HVLT-R Delayed Recall change from averaged baseline, Maximum: 4
  HVLT-R Delayed Recall change from averaged baseline, Median: 1.0
  HVLT-R Delayed Recall change from averaged baseline, Minimum: −3
  HVLT-R RDI change from averaged baseline, Maximum: 5
  HVLT-R RDI change from averaged baseline, Median: −0.3
  HVLT-R RDI change from averaged baseline, Minimum: −3
  HVLT-R Retention change from averaged baseline, Maximum: 35%
  HVLT-R Retention change from averaged baseline, Median: 6.3%
  HVLT-R Retention change from averaged baseline, Minimum: −37%
  HVLT-R Total Recall change from averaged baseline, Maximum: 6
  HVLT-R Total Recall change from averaged baseline, Median: 0.0
  HVLT-R Total Recall change from averaged baseline, Minimum: −2
  HVLT-R Delayed Recall change from averaged baseline, Arithmetic Mean: 0.8
  HVLT-R Retention change from averaged baseline, Arithmetic Mean: 3.8%
  HVLT-R Total Recall change from averaged baseline, Arithmetic Mean: 0.6
[1]; Day 40
  HVLT-R Delayed Recall change from averaged baseline, Maximum: 7
  HVLT-R Delayed Recall change from averaged baseline, Median: 1.0
  HVLT-R Delayed Recall change from averaged baseline, Minimum: 0
  HVLT-R RDI change from averaged baseline, Maximum: 6
  HVLT-R RDI change from averaged baseline, Median: 1.3
  HVLT-R RDI change from averaged baseline, Minimum: −11
  HVLT-R Retention change from averaged baseline, Maximum: 71%
  HVLT-R Retention change from averaged baseline, Median: 6.5%
  HVLT-R Retention change from averaged baseline, Minimum: −14%
  HVLT-R Total Recall change from averaged baseline, Maximum: 10
  HVLT-R Total Recall change from averaged baseline, Median: 4.5
  HVLT-R Total Recall change from averaged baseline, Minimum: −3
  HVLT-R Delayed Recall change from averaged baseline, Arithmetic Mean: 2.1
  HVLT-R Retention change from averaged baseline, Arithmetic Mean: 15.3%
  HVLT-R Total Recall change from averaged baseline, Arithmetic Mean: 3.5
[1]; [6]
  Calculated within-subject treatment effect size (Cohen's d), Delayed Recall: .86
  Calculated within-subject treatment effect size (Cohen's d), Immediate Recall: .69
[1]; during 6-week treatment
  Median increase in HVLT-R Total Recall score: 4.5 (range: −2.5 to +9.5)
[1]; week 6, Baseline 19.1 (±1.5), p=0.015
  HVLT-R Mean Total Recall score: 22.6 (±2.1)
[1]; week 6, baseline 5.4 (±0.6), P=0.028
  HVLT-R Delayed Recall score: 7.5 (±1.1)
[2]
  average number of EEA1-labeled endosomes per DS cell: significantly reduced
  average size of EEA1-labeled endosomes in DS cells: significantly reduced
[3]; 40 mg group
  patients with improvement from baseline, WMS delayed recall composite score: 8 of 8
  patients with improvement from baseline, WMS immediate recall composite score: 7 of 8
[3]; 125 mg group
  patients with improvement from baseline, WMS delayed recall composite score: 6 of 7
  patients with improvement from baseline, WMS immediate recall composite score: 6 of 7
[3]; Day 84
  change in all subcomponents of WMS episodic memory composites: statistically significant (P<0.05) increases
[3]; Day 84, combined doses, baseline 13.2 (±2.3), p<0.001
  Mean WMS delayed recall composite score: 22.1 (±4.1)
[3]; Day 84, n=15 combined doses, baseline 48.4 (±3.8), p=0.005
  Mean WMS immediate recall composite score: 58.4 (±4.3)
[3]; [7]
  Calculated within-subject treatment effect size (Cohen's d), Delayed Recall: .69
  Calculated within-subject treatment effect size (Cohen's d), Immediate Recall: .59
[3]; nearly all patients, regardless of effect on amyloid plaque
  WMS immediate and delayed recall, cognitive analysis: dose dependent improvement
[4]
  correlation between plasma drug concentration and increases in CSF Aβ 38/40/42 levels: statistically significant correlation
[5]; 40 mg group
  subjects with an increase from screening of at least 1 in MMSE score: approximately 50%
[5]; 40 mg group, FIG. 2
  patients with greater than a 3-point improvement in MMSE score over baseline: two of four
[5]; 125 mg group
  subjects with an increase from screening of at least 1 in MMSE score: ~33%

Reference: patent US10420770B2, “Compositions and methods for treating dementia” (EIP Pharma, LLC, priority 2016, dated 2019)
